From patent US20080300298A1, “Honokiol Derivates For the Treatment of Proliferative Disorders” (priority 2005, published 2008)

Target: T1, IKK (Homo sapiens, UniProt O14920+O15111)
T1 construct: 200 mg of extract was immunoprecipitated with antibodies against IKKa and IKKb; endogenous in cells; host or cells: H1299 cells, whole-cell extracts, immunoprecipitated
Assay: IKK assay (immune complex kinase assay)
Format: cell-based
Experimental: Honokiol inhibits TNF-induced activation of NF-kB. H1299 cells were incubated with […] honokiol for 12 h, treated with 0.1 nM TNF for the indicated times, and then analyzed for NF-kB activation by EMSA. (B) H1299 cells (2×10^6/ml) were incubated with […] honokiol for 12 h at 37° C., treated with 0.1 nM TNF for the indicated times at 37° C., and then tested for IkBa (upper panel) in cytosolic fractions by Western blot analysis. Equal protein loading was evaluated by b-actin (lower panel). (C) Honokiol blocks the phosphorylation and ubiquitination (D) of IkBaby TNF. […] To examine the effect of honokiol on the level of expression of IKK proteins, 30 mg of whole-cell extract was analyzed on 10% SDS-PAGE, electrotransferred, and immunoblotted with the indicated antibodies as described in Materials and Methods. […] Nuclear extracts were prepared and analyzed by Western blotting using antibodies against p65. […] The cytoplasmic and nuclear extracts were analyzed by Western blotting using antibodies against the phosphorylated form of p65.
IKK assay. To determine the effect of honokiol on TNF-induced IKK activation, we analyzed IKK by a method essentially as described previously (Shishodia, S., et al. 2003 Cancer Res. 63:4375-4383). […]

T1 sequence (O15111 whole entry): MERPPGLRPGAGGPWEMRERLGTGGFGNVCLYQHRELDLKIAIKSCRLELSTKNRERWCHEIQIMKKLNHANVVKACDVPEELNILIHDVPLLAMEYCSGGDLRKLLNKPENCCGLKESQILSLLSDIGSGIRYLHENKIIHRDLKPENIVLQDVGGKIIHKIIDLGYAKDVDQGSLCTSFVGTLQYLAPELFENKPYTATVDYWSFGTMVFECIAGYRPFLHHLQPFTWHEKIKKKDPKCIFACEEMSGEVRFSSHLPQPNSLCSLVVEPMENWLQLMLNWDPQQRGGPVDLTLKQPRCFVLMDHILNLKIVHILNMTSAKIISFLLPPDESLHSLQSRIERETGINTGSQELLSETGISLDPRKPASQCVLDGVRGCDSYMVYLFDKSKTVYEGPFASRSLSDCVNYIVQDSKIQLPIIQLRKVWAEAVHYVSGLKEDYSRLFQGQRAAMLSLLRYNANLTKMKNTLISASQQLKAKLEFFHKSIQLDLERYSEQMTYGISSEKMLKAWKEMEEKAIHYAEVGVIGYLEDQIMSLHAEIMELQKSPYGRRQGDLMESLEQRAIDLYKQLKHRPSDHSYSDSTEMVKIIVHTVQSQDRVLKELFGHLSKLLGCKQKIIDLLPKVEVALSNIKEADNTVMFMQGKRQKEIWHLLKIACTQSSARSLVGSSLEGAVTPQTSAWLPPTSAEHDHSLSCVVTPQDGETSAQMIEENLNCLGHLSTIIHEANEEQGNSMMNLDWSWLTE
T1 sequence (O14920 whole entry): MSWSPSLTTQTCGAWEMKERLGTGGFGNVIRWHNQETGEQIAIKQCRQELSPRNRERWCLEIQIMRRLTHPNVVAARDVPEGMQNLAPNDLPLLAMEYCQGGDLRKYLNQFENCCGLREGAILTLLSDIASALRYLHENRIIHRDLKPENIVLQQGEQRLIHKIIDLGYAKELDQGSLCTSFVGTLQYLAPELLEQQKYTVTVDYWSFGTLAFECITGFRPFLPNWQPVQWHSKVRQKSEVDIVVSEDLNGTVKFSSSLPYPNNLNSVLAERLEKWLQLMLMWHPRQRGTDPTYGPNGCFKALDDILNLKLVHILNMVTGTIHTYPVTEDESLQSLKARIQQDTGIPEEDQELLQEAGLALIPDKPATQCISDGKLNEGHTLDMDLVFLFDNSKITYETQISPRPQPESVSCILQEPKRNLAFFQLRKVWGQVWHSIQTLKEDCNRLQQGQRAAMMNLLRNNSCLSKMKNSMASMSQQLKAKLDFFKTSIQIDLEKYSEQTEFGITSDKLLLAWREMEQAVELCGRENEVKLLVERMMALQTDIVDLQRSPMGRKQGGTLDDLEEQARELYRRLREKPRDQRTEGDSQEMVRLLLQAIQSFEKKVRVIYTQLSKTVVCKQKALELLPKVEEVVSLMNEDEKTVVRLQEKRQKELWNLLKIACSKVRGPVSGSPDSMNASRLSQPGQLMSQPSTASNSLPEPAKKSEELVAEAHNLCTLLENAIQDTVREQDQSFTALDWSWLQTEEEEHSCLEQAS
T1 sequence (Q9Y6K9 whole entry partner): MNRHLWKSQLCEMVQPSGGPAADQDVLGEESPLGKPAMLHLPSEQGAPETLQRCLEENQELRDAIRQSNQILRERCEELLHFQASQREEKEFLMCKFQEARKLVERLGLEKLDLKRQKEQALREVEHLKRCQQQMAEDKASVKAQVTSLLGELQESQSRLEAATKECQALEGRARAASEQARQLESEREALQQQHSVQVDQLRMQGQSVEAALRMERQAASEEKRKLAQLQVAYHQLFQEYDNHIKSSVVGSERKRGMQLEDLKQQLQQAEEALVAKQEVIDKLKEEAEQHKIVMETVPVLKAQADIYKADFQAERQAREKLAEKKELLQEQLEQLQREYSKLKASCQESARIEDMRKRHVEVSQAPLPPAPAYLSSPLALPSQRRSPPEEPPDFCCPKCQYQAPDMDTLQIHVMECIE

Compound: C=CCc1ccc(O)c(-c2ccc(O)c(CC=C)c2)c1 [HNK, Honokiol]
- TNF-induced IKK activation (cells treated with honokiol 12 h, 0.1 nM TNF): completely suppressed TNF-induced activation of IKK
- IKK activity in vitro (direct effect) (in vitro): did not directly interfere with the IKK activity
